Assay results taken from patent publication US20250000854A1, “4-(Aminomethyl)-6-(1-Methyl-1H-Pyrazol-4-YL)Isoquinolin-1(2H)-One Derivatives as MTA-Cooperative Inhibitors of PRMT5” (BeiGene, Ltd., priority 2022, published 2025).
Structures can show the parent of a compound that is named as a salt.

Assays:
[1] = target: T1, human PRMT5/MEP50 enzyme (Homo sapiens (Human), UniProt O14744); experiment: PRMT5 Biochemical Assay (TR-FRET) in the absence of MTA; details: without MTA; 10 nM PRMT5/MEP50, 3 μM S-adenosylmethionine, histone H4 peptide
Method: (§1) The assay measures the methylation activity of purified human PRMT5/MEP50 enzyme toward histone H4-R3. Compounds disclosed herein were tested for inhibition of PRMT5/MEP50 using PRMT5 TR-FRET Assay Kit (BPS Bioscience) which contains a highly specific antibody that recognizes methylated substrates. The assay was carried out in 384-well low volume black plates in a reaction mixture containing 10 nM PRMT5/MEP50 complex, biotinylated histone H4 peptide, 3 μM S-adenosylmethionine and 0-10 μM compound in buffer containing 50 mM Tris-HCl buffer (pH 8.5), 0.005% BSA, 1 mM TCEP and 0.002% Tween-20. The PRMT5/MEP50 enzyme was incubated with compounds disclosed herein and biotinylated histone H4 peptide for 20 minutes at room temperature. The reaction was initiated by addition of S-adenosylmethionine. After reacting at room temperature for 120 minutes, the detection solution containing Eu-labeled antibody and dye-labeled acceptor in detection buffer was added to the reaction mixture. Plates were sealed and incubated at room temperature for 60 minutes, and the TR-FRET signals (excitation 337 nm, emission 665/620 nm) were recorded on a PHERAstar FSX plate reader (BMG Labtech). The inhibition percentage of PRMT5/MEP50 activity in presence of increasing concentrations of compounds was calculated based on the ratio of fluorescence at 665 nm to that at 620 nm. The IC50 value for each compound was derived from fitting the dose-response % inhibition data to the four-parameter logistic model by Dotmatics. And the compounds were tested in the presence and absence of MTA to evaluate whether the compounds display MTA-cooperative activity.

[2] = target: T1, human PRMT5/MEP50 enzyme; experiment: PRMT5 Biochemical Assay (TR-FRET) in the presence of MTA; details: with 800 nM MTA; 10 nM PRMT5/MEP50, 3 μM S-adenosylmethionine, histone H4 peptide
Method: as §1

T1 sequence (O14744 whole entry): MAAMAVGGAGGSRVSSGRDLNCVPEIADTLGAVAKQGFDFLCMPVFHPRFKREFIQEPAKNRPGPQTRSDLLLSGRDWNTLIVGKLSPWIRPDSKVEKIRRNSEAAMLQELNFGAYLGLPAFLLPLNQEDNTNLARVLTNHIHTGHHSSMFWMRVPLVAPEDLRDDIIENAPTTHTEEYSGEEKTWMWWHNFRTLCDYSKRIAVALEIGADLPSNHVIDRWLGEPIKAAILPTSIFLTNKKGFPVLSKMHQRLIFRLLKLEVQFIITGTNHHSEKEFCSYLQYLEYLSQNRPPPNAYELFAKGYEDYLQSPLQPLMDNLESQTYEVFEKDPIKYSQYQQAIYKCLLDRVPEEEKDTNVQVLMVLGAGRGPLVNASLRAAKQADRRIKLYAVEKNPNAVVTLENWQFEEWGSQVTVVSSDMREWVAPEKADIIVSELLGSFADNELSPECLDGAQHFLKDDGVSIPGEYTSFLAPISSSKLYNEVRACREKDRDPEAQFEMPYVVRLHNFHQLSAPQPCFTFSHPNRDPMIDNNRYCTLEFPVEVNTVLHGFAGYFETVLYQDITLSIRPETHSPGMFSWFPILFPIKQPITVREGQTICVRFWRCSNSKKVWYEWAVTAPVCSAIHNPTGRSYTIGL
T1 sequence (Q9BQA1 whole entry partner): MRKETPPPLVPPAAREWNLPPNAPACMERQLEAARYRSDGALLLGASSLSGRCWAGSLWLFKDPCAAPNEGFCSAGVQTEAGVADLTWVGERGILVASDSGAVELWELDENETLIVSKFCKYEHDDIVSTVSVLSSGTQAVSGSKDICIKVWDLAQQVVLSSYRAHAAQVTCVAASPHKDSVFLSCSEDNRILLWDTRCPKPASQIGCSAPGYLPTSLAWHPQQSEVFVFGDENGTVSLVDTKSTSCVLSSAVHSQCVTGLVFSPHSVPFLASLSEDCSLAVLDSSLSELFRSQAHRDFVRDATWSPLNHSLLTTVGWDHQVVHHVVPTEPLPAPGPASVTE

Row | SMILES | IC50 [1] | IC50 [2]
1 | Cn1ncc(-c2ccc3c(=O)[nH]cc(CN)c3c2)c1-c1cccc(OC2CC2)c1C#N [Example 6, 2-(4-(4-(aminomethyl)-1-oxo-1,2-dihydroisoquinolin-6-yl)-1-methyl-1H-pyrazol-5-yl)-6-cyclopropoxybenzonitrile hydrochloride] | 87 nM | 3.5 nM
2 | Cc1cc(-c2c(-c3ccc4c(=O)[nH]cc(CN)c4c3)cnn2C)c(C#N)c2ccccc12 [Example 4, 2-(4-(4-(aminomethyl)-1-oxo-1,2-dihydroisoquinolin-6-yl)-1-methyl-1H-pyrazol-5-yl)-4-methyl-1-naphthonitrile hydrochloride] | 29 nM | 2.7 nM
3 | Cn1ncc(-c2ccc3c(=O)[nH]cc(CN)c3c2)c1-c1cc(Cl)cc(OC2CC2)c1C#N [Example 2, 2-(4-(4-(aminomethyl)-1-oxo-1,2-dihydroisoquinolin-6-yl)-1-methyl-1H-pyrazol-5-yl)-4-chloro-6-cyclopropoxybenzonitrile hydrochloride] | 77 nM | 3.3 nM
4 | Cn1ncc(-c2ccc3c(=O)[nH]cc(CN)c3c2)c1-c1cc(C(F)(F)F)cc(OC2CC2)c1C#N [Example 7, 2-(4-(4-(aminomethyl)-1-oxo-1,2-dihydroisoquinolin-6-yl)-1-methyl-1H-pyrazol-5-yl)-6-cyclopropoxy-4-(trifluoromethyl)benzonitrile hydrochloride] | 165 nM | 6.2 nM
5 | Cn1ncc(-c2ccc3c(=O)[nH]cc(CN)c3c2)c1-c1cc(Cl)c2ccccc2c1C#N [Example 5, 2-(4-(4-(aminomethyl)-1-oxo-1,2-dihydroisoquinolin-6-yl)-1-methyl-1H-pyrazol-5-yl)-4-chloro-1-naphthonitrile hydrochloride] | 27 nM | 2.7 nM
6 | Cn1ncc(-c2ccc3c(=O)[nH]cc(CN)c3c2)c1-c1c(F)c(Cl)cc(OC2CC2)c1C#N [Example 3, 2-(4-(4-(aminomethyl)-1-oxo-1,2-dihydroisoquinolin-6-yl)-1-methyl-1H-pyrazol-5-yl)-4-chloro-6-cyclopropoxy-3-fluorobenzonitrile hydrochloride] | 68 nM | 7.6 nM
7 | Cn1ncc(-c2ccc3c(=O)[nH]cc(CN)c3c2)c1-c1c(F)cc2ccccc2c1C#N [Example 1, 2-(4-(4-(aminomethyl)-1-oxo-1,2-dihydroisoquinolin-6-yl)-1-methyl-1H-pyrazol-5-yl)-3-fluoro-1-naphthonitrile] | 29 nM | 3.2 nM
